We go through 2 compounds from patent US20230000869A1, “NOVEL ALK2 INHIBITORS AND METHODS FOR INHIBITING BMP SIGNALING” (The Brigham and Women's Hospital, Inc., priority 2017, published 2023).

The target of assay [1] is T1, ALK2 (Homo sapiens, UniProt Q04771).
T1 sequence (Q04771 147-509 limits assumed): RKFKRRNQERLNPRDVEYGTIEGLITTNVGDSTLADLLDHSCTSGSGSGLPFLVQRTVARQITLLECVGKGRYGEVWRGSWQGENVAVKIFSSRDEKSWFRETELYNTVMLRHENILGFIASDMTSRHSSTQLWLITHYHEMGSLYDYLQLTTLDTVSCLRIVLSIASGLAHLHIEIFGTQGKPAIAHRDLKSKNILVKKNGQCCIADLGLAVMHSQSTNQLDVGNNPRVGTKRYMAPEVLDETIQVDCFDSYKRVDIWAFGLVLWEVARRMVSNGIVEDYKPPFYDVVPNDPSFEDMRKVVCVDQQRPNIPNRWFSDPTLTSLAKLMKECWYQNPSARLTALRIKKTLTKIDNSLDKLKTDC
Nature of the assay: ALK2 (nM), Table 15. In kind it is biochemical.

The next assay has as its system TGFb. Nature of the assay: Cell assay HTRF TGFb (Table 15). In kind it is cell-based. To be noted: read-out: HRTF TGFb (IC50).
The test system of another assay is BMP6. Nature of the assay: Cell assay HTRF BMP6 (Table 15). It counts as cell-based.
The target in a further assay is TGFβR2 (Homo sapiens, UniProt P37173). Nature of the assay: LanthaScreen Eu kinase binding assay, BMP type II receptor TGFbR2. To be noted: 10-point titration from 10 μM, 3-fold serial dilution, Life Technologies. From the text: (§1) For the detailed description of LanthaScreen™ Eu kinase binding assay condition, please see: https://www.thermofisher.com/us/en/home/industrial/pharma-biopharma/drug-discovery-development/target-and-lead-identification-and-validation/kinasebiology/kinase-activity-assays/lanthascreentm-eu-kinas e-binding-assay/lanthascreen-eu-kinase-binding-assay-validation-table.html.

The next assay addresses T2, BMPR2 (Homo sapiens, UniProt Q13873).
T2 sequence (Q13873 27-1038): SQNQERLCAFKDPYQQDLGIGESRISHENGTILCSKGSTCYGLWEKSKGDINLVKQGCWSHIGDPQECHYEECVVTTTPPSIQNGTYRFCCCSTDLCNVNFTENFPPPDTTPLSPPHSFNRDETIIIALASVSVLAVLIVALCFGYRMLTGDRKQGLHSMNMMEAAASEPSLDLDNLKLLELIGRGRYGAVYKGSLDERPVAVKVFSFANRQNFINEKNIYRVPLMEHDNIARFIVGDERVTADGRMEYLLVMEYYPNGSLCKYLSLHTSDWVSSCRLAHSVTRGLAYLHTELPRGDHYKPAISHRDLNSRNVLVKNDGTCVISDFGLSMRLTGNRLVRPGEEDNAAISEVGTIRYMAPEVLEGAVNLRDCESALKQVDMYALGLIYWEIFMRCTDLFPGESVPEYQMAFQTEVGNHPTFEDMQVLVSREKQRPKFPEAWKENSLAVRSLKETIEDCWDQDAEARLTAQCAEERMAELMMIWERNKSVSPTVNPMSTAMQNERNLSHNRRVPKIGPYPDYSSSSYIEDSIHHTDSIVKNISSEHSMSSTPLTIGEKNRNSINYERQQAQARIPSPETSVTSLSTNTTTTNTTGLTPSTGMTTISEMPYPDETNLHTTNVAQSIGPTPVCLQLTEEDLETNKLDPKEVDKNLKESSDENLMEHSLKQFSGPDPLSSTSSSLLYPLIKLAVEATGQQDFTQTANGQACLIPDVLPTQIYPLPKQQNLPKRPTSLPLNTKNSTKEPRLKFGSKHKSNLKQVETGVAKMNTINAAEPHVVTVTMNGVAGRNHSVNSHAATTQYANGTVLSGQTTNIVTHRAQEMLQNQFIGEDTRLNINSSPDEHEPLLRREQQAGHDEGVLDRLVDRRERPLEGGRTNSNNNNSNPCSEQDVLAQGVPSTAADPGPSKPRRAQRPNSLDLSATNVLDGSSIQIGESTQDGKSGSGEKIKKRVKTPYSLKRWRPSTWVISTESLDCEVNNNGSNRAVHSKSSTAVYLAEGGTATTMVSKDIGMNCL
Nature of the assay: LanthaScreen Eu kinase binding assay, BMP type II receptor BMPR2. To be noted: 10-point titration from 10 μM, 3-fold serial dilution, Life Technologies. How it is done:
(§2) Kinase Profiling BMP Type II Receptor Experimental Procedure (Life Technologies, 5225 Vernona Road, Madison, Wis. 53744)
(§3) The measurement of each compound's half maximal inhibitory concentration (IC50) for BMP type II receptors (ACVR2A, ACVR2B, BMPR2 and TGFbR2) was carried out at Life Technologies by using its 10-point titration (starting concentration: 10 μM with 3-fold serial dilution) LanthaScreen™ biochemical kinase assay protocol. For the detailed description of LanthaScreen™ Eu kinase binding assay condition, please see: https://www.thermofisher.com/us/en/home/industrial/pharma-biopharma/drug-discovery-development/target-and-lead-identification-and-validation/kinasebiology/kinase-activity-assays/lanthascreentm-eu-kinas e-binding-assay/lanthascreen-eu-kinase-binding-assay-validation-table.html.

A further assay has as its target ACVR2B (Homo sapiens, UniProt Q13705). Nature of the assay: LanthaScreen Eu kinase binding assay, BMP type II receptor ACVR2B. The following applies: 10-point titration from 10 μM, 3-fold serial dilution, Life Technologies. How it is done: as §2, §3
A further assay deals with ACVR2A (Homo sapiens, UniProt P27037). Nature of the assay: LanthaScreen Eu kinase binding assay, BMP type II receptor ACVR2A. To be noted: 10-point titration from 10 μM, 3-fold serial dilution, Life Technologies.
Source text: as §1

A further assay deals with TGFβ. Nature of the assay: Luciferase reporter gene assay for TGFβ activity (HEK293T SBE-Luc SMAD2/3 reporter, TGFβ agonist). The following applies: Homo sapiens, HEK-293T, TGFβ 5 ng/mL. It counts as cell-based. The method in brief:
(§4)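 TGFβ activity was measured in HEK293T SBE-Luc cells stimulated with 5 ng/mL TGFβ, at compound 10000-30 nM final. ALK2 activity was measured in C2C12 BRE-Luc cells stimulated with 50 ng/mL BMP6, at compound 1000-0.3 nM final. Compound was preincubated 45 min in 2% FBS medium; after ≥18 h agonist exposure, luminescence was read and inhibition expressed as % signal loss versus background-subtracted agonist controls.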

In assay [2] the target is T3, ALK2 (Mus musculus, UniProt P37172).
T3 construct: endogenous in cells; host or cells: C2C12-BRE (BRE-Luc reporter line, G418 selection)
T3 sequence (P37172 21-509): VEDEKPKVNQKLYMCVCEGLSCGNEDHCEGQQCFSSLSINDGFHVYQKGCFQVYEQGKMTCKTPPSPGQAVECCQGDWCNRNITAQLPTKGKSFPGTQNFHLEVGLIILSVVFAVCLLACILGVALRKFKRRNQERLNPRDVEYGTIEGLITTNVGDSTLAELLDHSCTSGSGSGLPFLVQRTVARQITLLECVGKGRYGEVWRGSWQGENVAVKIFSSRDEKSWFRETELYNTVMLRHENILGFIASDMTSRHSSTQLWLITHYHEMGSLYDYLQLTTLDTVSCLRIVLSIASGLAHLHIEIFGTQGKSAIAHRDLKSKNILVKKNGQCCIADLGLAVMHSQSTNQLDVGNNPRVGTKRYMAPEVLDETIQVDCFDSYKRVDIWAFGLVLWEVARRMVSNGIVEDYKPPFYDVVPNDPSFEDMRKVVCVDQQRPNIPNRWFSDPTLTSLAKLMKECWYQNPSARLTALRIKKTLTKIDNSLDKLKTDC
Nature of the assay: Luciferase reporter gene assay for ALK2 activity (C2C12 BRE-Luc SMAD1/5/8 reporter, BMP6 agonist). It counts as cell-based. To be noted: BMP6 50 ng/mL. The method in brief:
as §4

SMILES strings stand for the structures.

Chain of TGFβR2 (P37173 23-567): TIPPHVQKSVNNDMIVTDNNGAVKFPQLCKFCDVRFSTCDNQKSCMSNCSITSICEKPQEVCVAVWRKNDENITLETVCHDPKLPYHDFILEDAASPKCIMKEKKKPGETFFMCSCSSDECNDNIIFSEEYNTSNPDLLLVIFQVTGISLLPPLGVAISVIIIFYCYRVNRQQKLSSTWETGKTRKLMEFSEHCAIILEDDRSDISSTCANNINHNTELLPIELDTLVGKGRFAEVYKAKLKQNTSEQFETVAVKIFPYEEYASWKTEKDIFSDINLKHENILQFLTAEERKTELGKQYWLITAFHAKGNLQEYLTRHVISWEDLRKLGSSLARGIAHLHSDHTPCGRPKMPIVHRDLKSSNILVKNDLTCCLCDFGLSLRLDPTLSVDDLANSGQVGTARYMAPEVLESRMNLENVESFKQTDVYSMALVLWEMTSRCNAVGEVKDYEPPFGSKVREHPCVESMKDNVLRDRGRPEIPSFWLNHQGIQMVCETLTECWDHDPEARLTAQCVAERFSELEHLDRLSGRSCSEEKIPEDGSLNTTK
Chain of ACVR2B (Q13705 19-512): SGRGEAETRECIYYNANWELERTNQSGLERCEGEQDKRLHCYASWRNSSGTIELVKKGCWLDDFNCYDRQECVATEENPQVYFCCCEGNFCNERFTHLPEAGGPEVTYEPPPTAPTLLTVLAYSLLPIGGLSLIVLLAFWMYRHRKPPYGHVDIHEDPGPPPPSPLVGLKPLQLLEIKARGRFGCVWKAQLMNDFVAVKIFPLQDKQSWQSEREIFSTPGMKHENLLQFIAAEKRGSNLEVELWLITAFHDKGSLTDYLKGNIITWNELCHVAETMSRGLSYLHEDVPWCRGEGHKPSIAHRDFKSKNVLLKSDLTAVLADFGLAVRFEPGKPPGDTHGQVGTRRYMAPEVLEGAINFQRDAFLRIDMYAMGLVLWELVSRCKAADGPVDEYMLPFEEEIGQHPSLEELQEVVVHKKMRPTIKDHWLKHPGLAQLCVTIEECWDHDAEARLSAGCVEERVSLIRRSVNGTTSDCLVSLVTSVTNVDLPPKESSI
Chain of ACVR2A (P27037 20-513): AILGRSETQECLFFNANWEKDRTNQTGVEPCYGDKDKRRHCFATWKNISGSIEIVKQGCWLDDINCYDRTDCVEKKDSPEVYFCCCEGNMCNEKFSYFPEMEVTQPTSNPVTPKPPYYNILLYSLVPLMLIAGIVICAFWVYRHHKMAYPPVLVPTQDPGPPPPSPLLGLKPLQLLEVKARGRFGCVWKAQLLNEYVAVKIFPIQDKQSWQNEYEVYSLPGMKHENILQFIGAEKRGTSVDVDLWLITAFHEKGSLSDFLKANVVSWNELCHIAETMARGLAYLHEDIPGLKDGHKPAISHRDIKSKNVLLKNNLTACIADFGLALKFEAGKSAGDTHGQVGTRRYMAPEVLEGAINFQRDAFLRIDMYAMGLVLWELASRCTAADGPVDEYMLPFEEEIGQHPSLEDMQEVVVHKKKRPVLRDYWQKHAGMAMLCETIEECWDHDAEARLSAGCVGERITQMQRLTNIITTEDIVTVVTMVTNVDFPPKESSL

`c1ccc2c(-c3cnn4cc(N5CCN(C6CCNCC6)CC5)cnc34)ccnc2c1` [Compound 79]: the IC50 is 110 nM on ALK2 [1]; 4610 nM in the assay with TGFb; 97.4 nM with BMP6; 71.3 nM on TGFβR2; above 10000 nM on BMPR2; 1280 nM at ACVR2B. The IC50 at ACVR2A was 851 nM.
For `c1ccc2c(-c3cnn4cc(N5CCNCC5)cnc34)ccnc2c1` [Compound 80], the IC50 against ALK2 [1] was determined as 93 nM; in the assay on TGFβ, 33 nM; in the assay with TGFb, 5790 nM; in the assay with BMP6, 250 nM; on TGFβR2, 194 nM; at ALK2 [2] it was 25 nM. Moreover, the IC50 was at least 10000 nM at BMPR2, 3610 nM at ACVR2B and 3710 nM at ACVR2A.
